In ChEMBL document CHEMBL3046816, “Development of a Novel Insecticide, Dinotefuran” (J Pestic Sci, 2005):
Converted amounts (≈) assume the structure as drawn.

Experiments:
[1] = Acute toxicity in Anas platyrhynchos (mallard duck) dosed with diet; details: in vivo, po
[2] = Octanol-water partition coefficient, log Pow of the compound
[3] = Solubility in water at pH 7; details: buffer
[4] = Toxicity in male po dosed Mus musculus (mouse); details: in vivo
[5] = Toxicity in female po dosed Mus musculus (mouse); details: in vivo

SMILES: CN/C(=N/CC1CCOC1)N[N+](=O)[O-] (stereo not given) [DINOTEFURAN]
- LD50 [1]: > 1300 mg/kg
- logP [2]: -0.549
- solubility [3]: 40 mg/mL (≈ 198 mM)
- LD50 [4]: 2450 mg/kg
- LD50 [5]: 2280 mg/kg
